Data published in patent US9238632B2, “3-cyanoanilinoalkylarylpiperazine derivative and use thereof in preparing drugs” (NHWA Pharma. Corporation, priority 2012, dated 2016).

Tests used:
5-HT1A receptor = target: T1, 5-HT1A receptor (Rattus norvegicus, UniProt P19327); assay: In vitro competitive binding test to 5-HT1A receptor ([3H]-8-OH-DPAT, rat cerebral cortex membranes); settings: 10 μmol/L compound; hydrochloride salts; rat cerebral cortex membrane; unit (I %); read-out: 5-HT1A affinity [3H]-8-OH-DPAT (inhibition rate of radioligand binding)
T1 construct: The supernatant is discarded and the precipitate (membrane receptor) is stocked; from tissue; host or cells: SD rat cerebral cortex membranes
T1 sequence (P19327 1-422): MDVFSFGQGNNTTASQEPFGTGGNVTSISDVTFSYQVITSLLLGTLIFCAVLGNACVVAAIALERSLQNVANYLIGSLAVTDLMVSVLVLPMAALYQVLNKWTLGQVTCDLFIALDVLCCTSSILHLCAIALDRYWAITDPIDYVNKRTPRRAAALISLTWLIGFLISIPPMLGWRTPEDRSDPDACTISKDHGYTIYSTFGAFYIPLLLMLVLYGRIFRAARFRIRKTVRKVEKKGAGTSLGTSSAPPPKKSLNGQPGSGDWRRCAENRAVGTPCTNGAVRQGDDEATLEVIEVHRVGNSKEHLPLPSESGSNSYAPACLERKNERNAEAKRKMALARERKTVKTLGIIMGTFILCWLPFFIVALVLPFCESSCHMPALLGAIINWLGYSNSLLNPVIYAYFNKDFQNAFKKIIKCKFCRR
Experimental: (§1) Animals: clean grade SD rats, female and male, 250-300 g, purchased from Nanjing QingLongshan animal breeding center.
(§2) Radioligand: [^3H]-8-OH-DPAT, [^3H]-Ketanserin, purchased from PerkinElmer company; 5-HT and Methysergide, purchased from Sigma company.
Preparation of 5-HT1A buffer solution: Tris-HCl buffer solution (0.05M, 1000 ml) is added with certain amount of ascorbic acid, pargyline and CaCl2, to give final concentrations of 0.1%(ascorbic acid), 10 um (pargyline) and 4 mM (CaCl2) separately.
(§3) Preparation of radioligand: 50 μl mother liquor is diluted to 5 ml with anhydrous ethanol, and stocked for use.
(§4) Preparation of non-labeling ligand: appropriate amounts of 5-HT and Methysergide are dissolved in ultrapure water to give solutions with final concentrations of 2*10^−5M respectively.
(§5) Preparation of solutions of various test drugs: appropriate amount of each drug is first diluted to 1 ml with ultrapure water as stock solution. When needed, 10 μl of the stock solution is diluted to 1 ml to reach a level of 10^−5M.
(§6) Rats are decapitated to get the brains. The target tissues (left and right cerebral cortex) are separated on ice, added with 10-fold volume (V/W) of ice-cold buffer, and homogenized with tissue Homogenizer for several seconds 3 times to form tissue homogenate. The tissue homogenate is centrifuged with low temperature superb centrifuge (12000 r/min) 3 times, with each for 20 minutes. The supernatant is discarded and the precipitate (membrane receptor) is stocked in −80° C. ultralow temperature freezer.
(§7) The membrane receptor is added with certain volume of ice-cold buffer and homogenized to make membrane receptor solutions at certain concentrations.
(§8) Various reaction solutions are added in the following sequences and ratios:
(§9) Total binding tube: 100 μl membrane receptor+100 μl buffer+10 μl radioligand
(§10) Non-specific tube: 100 μl membrane receptor+100 μl non-labeling ligand+10 μl radioligand
(§11) Test compound tube: 100 μl membrane receptor+100 μl drug solution+10 μl radioligand
(§12) Above tubes are put in 37° C. water bath immediately after finishing adding radioligand into each of them and then incubated for 25 min. After 25 min, the tubes are put in ice water to quench the reaction. Each tube is poured into suction filtration device to filter, and the filter membrane is washed with 5-10 ml ice-cold buffer twice. The filter membrane is dried in 85° C. oven, and then put into test tubes, and added with certain amount of scintillation liquid to soak overnight. Radioactivity is determined using liquid scintillation counter.
(§13) Each compound is tested in duplicate, and the tests are carried out independently twice.

5-HT2A receptor = target: T2, 5-HT2A receptor (Rattus norvegicus, UniProt P14842); assay: In vitro competitive binding test to 5-HT2A receptor ([3H]-Ketanserin, rat cerebral cortex membranes); settings: 10 μmol/L compound; hydrochloride salts; rat cerebral cortex membrane; unit (I %); read-out: 5-HT2A affinity [3H]-Ketanserin (inhibition rate of radioligand binding)
T2 construct: The supernatant is discarded and the precipitate (membrane receptor) is stocked; from tissue; host or cells: SD rat cerebral cortex membranes
T2 sequence (P14842 whole entry): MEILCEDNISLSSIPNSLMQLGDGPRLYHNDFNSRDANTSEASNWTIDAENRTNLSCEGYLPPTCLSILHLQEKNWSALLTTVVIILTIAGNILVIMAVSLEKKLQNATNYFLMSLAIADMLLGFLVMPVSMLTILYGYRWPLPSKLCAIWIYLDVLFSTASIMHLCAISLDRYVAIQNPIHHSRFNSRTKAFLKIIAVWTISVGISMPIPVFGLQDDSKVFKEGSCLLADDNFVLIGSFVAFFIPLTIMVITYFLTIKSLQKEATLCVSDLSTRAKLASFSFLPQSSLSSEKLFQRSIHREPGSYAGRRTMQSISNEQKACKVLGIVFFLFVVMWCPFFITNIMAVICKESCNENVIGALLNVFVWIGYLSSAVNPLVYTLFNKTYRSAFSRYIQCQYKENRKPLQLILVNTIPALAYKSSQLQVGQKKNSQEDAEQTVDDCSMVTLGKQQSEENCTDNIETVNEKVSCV
Experimental: as §1, §2
Preparation of 5-HT2A buffer solution: Tris (6.05 g) is dissolved in ultrapure water (1000 ml). PH is adjusted to 7.4 with HCl. Tris-HCl buffer solution (0.05M) is used.
as §3, §4, §5, §6, §7, §8, §9, §10, §11, §12, §13

[1] = test system: rat formalin induced pain model; assay: Rat formalin induced pain model (leg-raising times); type: in vivo, SD rats; settings: formalin 1 h later, Mean ± SD, n=10
Excerpt: Rat formalin induced pain model is used to test in vivo analgesic effect of hydrochloride of compound III-10.
Rat formalin induced pain model is established by Dubuisson and Dennis in 1977. It can simulate some characteristics of human pains after damages, and its persistent tension pain is similar to common clinical chronic pains. Its experimental results have excellent repeatability, and it is considered to be universally accepted pain model which is more reliable than short-term mechanical or thermal stimulation models. It has been generally used in investigation and determination of pain mechanism, pain physiology and pharmacology, screening of the analgesic effects of drugs and evaluation of analgesic drugs.
Test compounds are prepared to relevant doses with 0.5% CMC-Na before use.
Formaldehyde solution: batch number HN20041109, HuaDong reagent industrial company. In experiment, it is diluted to 5% formaldehyde solution with 0.9% sodium chloride injection.
90 SD rats of weight (240-350 g), half female and half male, are fed for I week to adapt the environment, with 5 in each cage during feeding, the rats are fed under standard condition during experiments with free access to water and food.
90 SD rats of weight 240-350 g are randomly divided into 9 groups which are negative control group, model group, gabapentin group, high, median and low dosage group of each compound respectively, with 10 rats in each group, half female and half male. Relevant test compounds are given by intragastric administration, and 5% formalin (50 ul) is subcutaneously injected at the left rear foot in 1 h to model, formation of pichu indicates a successful modeling. 0.5% (weight percentage) CMC-Na is given by intragastric administration in negative control group, and normal saline (50 ul) is subcutaneously injected at the bottom of right rear foot in 1 h. After modeling, the leg-raising times in 1-2 minutes and 5-6 minutes are observed. The time period 10-60 minutes are divided into 5 minutes intervals, and the leg-raising times of the first minute of each interval (10-11, 15-16, 20-21, 25-26, 30-31, 35-36, 40-41, 45-46, 50-51, 55-56, 60-61) are observed.
Measuring index is expressed as mean±standard deviation (Mean±SD), comparison is analyzed with One-way ANOVA.

[2] = Acute toxicity study, single drench to mice (LD50, Bliss method); settings: mouse, in vivo, oral, hydrochloride
Excerpt: Bliss method is used for statistics.

[3] = test system: Salmonella typhimurium histidine auxotrophic mutants TA97, TA98, TA100 and TA102; assay: Bacterial reverse mutation test (Ames test); settings: −S9 and +S9, all dosages
Experimental: Strains: Salmonella typhimurium histidine auxotrophic mutants TA97, TA98, TA100 and TA102.
Results: the experiments include two parts of −S9 and +S9. In the test system without S9, TA98 5000 μg/dish has antibacterial activity, and in the test system with S9, TA97 5000 μg/dish has antibacterial activity. Other dosages have no antibacterial activity to any of the strains, and the growth background is excellent. […] Ames test is negative.

hSERT = hSERT (Homo sapiens, UniProt P31645); assay: In vitro inhibition of serotonin reuptake ([3H]-5-HT) in cells stably expressing hSERT
Sequence of hSERT (P31645 whole entry): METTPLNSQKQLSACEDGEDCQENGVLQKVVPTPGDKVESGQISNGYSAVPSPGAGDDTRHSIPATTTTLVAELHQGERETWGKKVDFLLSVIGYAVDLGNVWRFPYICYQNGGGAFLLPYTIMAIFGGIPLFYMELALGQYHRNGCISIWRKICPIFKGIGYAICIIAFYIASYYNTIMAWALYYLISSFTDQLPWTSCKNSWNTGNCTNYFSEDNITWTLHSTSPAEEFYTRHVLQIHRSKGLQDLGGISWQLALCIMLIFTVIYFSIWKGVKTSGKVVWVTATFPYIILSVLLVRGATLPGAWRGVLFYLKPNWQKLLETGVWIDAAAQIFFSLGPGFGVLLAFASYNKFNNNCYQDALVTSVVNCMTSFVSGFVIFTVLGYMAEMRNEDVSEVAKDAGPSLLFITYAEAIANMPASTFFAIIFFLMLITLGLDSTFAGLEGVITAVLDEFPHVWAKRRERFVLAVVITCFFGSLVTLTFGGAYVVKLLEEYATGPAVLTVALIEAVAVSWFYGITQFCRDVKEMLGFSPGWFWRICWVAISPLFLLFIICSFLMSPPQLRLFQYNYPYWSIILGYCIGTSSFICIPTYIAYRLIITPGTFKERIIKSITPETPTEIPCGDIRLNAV
Experimental: Positive control compound: fluoxetine.
Sample treatment: about 1 mg of compound is weighted and added with relative amount of DMSO to prepare 10^−2M stock solution. Before use, the stock solution is diluted with HBSS buffer to relative concentrations. Each sample is dissolved in DMSO completely. The dilution is clear and without obvious cloudy and formation of precipitate after adding with buffer.
(1) Cells which can stably express hSERT are seeded into 24-well plates respectively.
(2) Experiments are started when the cell confluence reaches 80-90%.
(3) Liquids in the plates are discarded, the plates are washed with PBS twice at room temperature.
(5) Plates are incubated at 37° C. for 10 min after slight oscillation.
(6) Then 20 μl radioisotope is added (cpm: about 20000).
(7) Plates are incubated at 37° C. for 5 min after slight oscillation.
(8) Liquids in the plates are discarded, the plates are washed with ice-cold PBS twice, all the liquids in the plates are removed away.
(9) NaOH (2M, 100 μl) is added into each well to lyse the cells. All the lysates are combined and put on GF/C glass fiber filter paper.
(10) The filter papers are dried and put in 0.5 ml centrifuge tube, 500 μl lipid soluble scintillation liquid are added. Radioactivity is determined by MicroBeta liquid scintillation counter. Each concentration is tested intriplicate, and tests are carried out independently twice.
Test concentration is 10 μmol/L. The positive drug provided is set as control (10 μmol/L) in each experiment. The experimental processes are the same as the above process.

For `CN(CCCN1CCN(c2cccc(Cl)c2)CC1)c1cccc(C#N)c1` [III-10, 3-((3-(4-(3-chlorophenyl)piperazin-1-yl)propyl)methylamino)benzonitrile], the inhibition at 10 µM (5-HT1A receptor) was 109%, the inhibition at 10 µM (5-HT2A receptor) was 145% and the “phase I times (leg-raising times)” value ([1]; 40 mg/kg intragastric) was 21.23 ± 11.24 time. For the same molecule, the “phase I times (leg-raising times)” value ([1]; 160 mg/kg intragastric) was 21.90 ± 15.48 time, the LD50 [2] was 1500 mg/kg and the “Ames test (colony reverse mutations)” value [3] was “negative”. The IC50 (hSERT) was 138 ± 35 nM, the “inhibition effect to 5-HT reuptake compared with fluoxetine” value (hSERT) was “more potent than that of fluoxetine” and the inhibition at 10 µM (hSERT; read-out: Inhibition rates of SERT reuptake [3H]-5-HT) was 94.3%.
